Test results published in patent US7893263B2, “Structural analogs of corosolic acid having anti-diabetic and anti-inflammatory properties” (Laila Nutraceuticals, priority 2004, dated 2011).

Experiments:
5-Lipoxygenase = 5-Lipoxygenase inhibitory activity, colorimetric method (ferric xylenol orange, linoleic acid); assay type: biochemical
Method: 5-Lipoxygenase activity: The corosolic acid analogs were screened for their 5-Lipoxygenase inhibitory potential using colorimetric method. The assay mixture contained 50 mM phosphate buffer pH 6.3, 5-Lipoxygenase, various concentrations of test substances in dimethyl sulphoxide and linoleic acid in a total volume of 0.5 mL, after 5 min incubation of above reaction mixture, 0.5 mL ferric xylenol orange reagent was added and OD was measured after two minutes at 585 nm using spectrophotometer. Controls were run along with test in a similar manner except using vehicle instead of test substance solution. Percent inhibition was calculated by comparing absorbance of test solution with that of control.
The corosolic acid analogs of this invention are found to show good 5-lipoxygenase activity (Table 2; 5-lipoxygenase activity is expressed in % of inhibition at 100 μM and 250 μM; higher the % inhibitory values, higher is the activity).

Albino wistar rats = assay: Hypoglycemic activity: inhibition of sucrose-induced raise in serum glucose levels (SGL); assay type: in vivo; parameters: Inhibitory rate (serum glucose level inhibitory rate): unit not given here; settings: oral dose 1 mg/Kg; for SGL (mean ± SE): 20 mL/kg of 20% sucrose orally after 30 minutes, blood drawn one hour after treatment, groups of six rats; for Inhibitory rate (serum glucose level inhibitory rate): mean increase in serum glucose levels of treated vs control groups
Method: Hypoglycemic activity: Hypoglycemic activity was tested by the inhibition of sucrose-induced raise in serum glucose levels (SGL), by the test substances in Albino wistar rats. The procedure involves fasting the rats for overnight at ad libitum water, numbered weighed and randomly divided into groups of six animals each. Prior to treatment blood samples were drawn from sinus orbital plexus of all animals using heparin coated glass capillaries under mild ether anesthesia. The blood samples were tested for serum glucose levels using enzymatic GOD/POD method. […] SGL=(test OD/Standard OD)×100 and the results were expressed in mg/dL. All the groups were treated orally with corresponding test substances, standard, vehicle (5% gum acacia). After 30 minutes, all animals were given 20 mL/kg of 20% sucrose solution orally using gastric tube. One hour after treatment, blood samples were drawn again under mild ether anesthesia and tested for serum glucose levels in a same procedure as described above for initial serum glucose estimation. The data was subjected to statistical treatment using t-test and inhibitory rate was calculated by comparing mean increase in serum glucose levels of control and treated groups. The corosolic acid analogs of this invention are found to show better hypoglycemic activity (Table 1; hypoglycemic activity is expressed in serum glucose level inhibitory rate values; higher the inhibitory rate value, higher is the activity) than the corosolic acid.

[1] = system: Brine shrimp (Artemia salina) nauplii; assay: in vivo; settings: 24 h at 37° C., 10 nauplii per vial
Method: (§1) Brine shrimp lethality: Brine shrimp (Artemia salina) nauplii were hatched using brine shrimp eggs in a conical shaped vessel (1 L), filled with sterile artificial sea water (prepared using sea salt 38 g/L and adjusted to pH 8.5 using 1 N NaOH) under constant aeration for 48 h. After hatching, 10 nauplii were drawn through a pepette and placed in each vial containing 4.5 mL brine solution and added various concentrations of drug solutions and volume was made upto 5 mL using brine solution and maintained at 37° C. for 24 h under the light of incandescent lamps and surviving larvae were counted. Each experiment was conducted along with control (vehicle treated), at various concentrations of the test substance in each set that contains 6 tubes and the average results are reported. The percentage lethality was determined by comparing the mean mortal larvae of test and control tubes. LC50 values were obtained from the plot of concentration (μg) vs. percentage lethality. Podophyllotoxin was used as a positive control.
(§2) The corosolic acid analogs of this invention are found to show significant brine shrimp lethality (Table 3; brine shrimp lethality is expressed in LC50 at μM concentration; lower the LC50 value, higher is the activity).

in vivo = settings: Artemia salina (brine shrimp), pH 8.5; 24 h at 37° C., 10 nauplii per vial
Method: as §1, §2

For `COc1cc(C(=O)OC(=O)C23CCC(C)C(C)C2C2=CCC4C5(C)CC(O)C(O)C(C)(C)C5CCC4(C)C2(C)CC3)cc(OC)c1OC` (centres unmarked) [Compound 25, Corosolyl tri-O-methylgallate], the “% inhibition of 5-Lox activity” value (5-Lipoxygenase; 250 μM) was 38.83%, the “SGL (mean ± SE)” value (Albino wistar rats) was 131.84 ± 7.77 mg/dL and the “Inhibitory rate (serum glucose level inhibitory rate)” value (“Inhibitory rate” below) (Albino wistar rats) was 9.84. For the same molecule, the LC50 [1] was > 200 µM.

For `CC1CCC23CCC4(C)C(=CC(OC2=O)C2C5(C)CC(O)C(O)C(C)(C)C5CCC24C)C3C1C` (stereo not drawn) [Compound 26, 2α,3β-Dihydroxyurs-12-en-11,28-olide], the “% inhibition of 5-Lox activity” value (5-Lipoxygenase; 250 μM) was 10.47%, the “SGL (mean ± SE)” value (Albino wistar rats) was 136.03 ± 4.43 mg/dL and the “Inhibitory rate” value (Albino wistar rats) was 6.97. It also gave an LC50 [1] of 87 µM.

For `C[C@H]1[C@H](C)CC[C@]2(C(=O)O)CC[C@]3(C)C(=CC[C@@H]4[C@@]5(C)C[C@@H](O)[C@H](O)C(C)(C)[C@@H]5CC[C@]43C)[C@H]12` [Corosolic acid, 2α-hydroxyursolic acid], the “5-LOX inhibitory activity (in words)” value (5-Lipoxygenase) was “on par with 3-O-acetyl-11-keto-β-boswellic acid (AKBA)”, the “% inhibition of 5-Lox activity” value (5-Lipoxygenase; 100 μM) was 13.48% and the “% inhibition of 5-Lox activity” value (5-Lipoxygenase; 250 μM) was 29.26%. For the same molecule, the “SGL (mean ± SE)” value (Albino wistar rats) was 121.43 ± 6.27 mg/dL, the “Inhibitory rate” value (Albino wistar rats) was 9.78 and the LC50 at 24 h (in vivo) was 3 µM.

Work on `COc1cc([C@@H]2c3cc4c(cc3[C@H](O)[C@H]3COC(=O)[C@H]23)OCO4)cc(OC)c1OC` [podophyllotoxin, Podophyllotoxin, reference compound] yielded an LC50 at 24 h (in vivo) of 7.7 µM.

In the case of Corosolinol [Compound 23], the “% inhibition of 5-Lox activity” value (5-Lipoxygenase; 100 μM) is reported as 2.91%, the “% inhibition of 5-Lox activity” value (5-Lipoxygenase; 250 μM) is reported as 19.63% and the “SGL (mean ± SE)” value (Albino wistar rats) is reported as 113.06 ± 2.61 mg/dL. The “Inhibitory rate” value (Albino wistar rats) was 30.59 and the LC50 [1] was 30.7 µM.
